# Experimental data: patent US8877696B2, “Cleaning compositions comprising pH-switchable amine surfactants” (The Proctor & Gamble Company, priority 2012, dated 2014)
# Experiments:
# Format in all cases: physicochemical
# [1] = Critical micelle formation concentration (CMC) by surface tension
# Protocol: MEASUREMENT OF THE CRITICAL MICELLE FORMATION CONCENTRATION (CMC): CMC measurements are conducted by a measurement of a surface tension measure as a function of surfactant concentration according to “Surfactant: A Practical Handbook,” K. Robert Lange ed., Hanser Publishers, Munich (1999), pp. 16-17. A 5000-ppm stock solution of the samples is prepared for the analysis on a Kruss K100 Tensiometer (Kruss USA, Charlotte, N.C.). The hardness level and pH are adjusted using corresponding stock solutions of artificial hardness and an NaOH solution. The concentration series is generated automatically with a computer-controlled Dosimat, so that only a surfactant stock solution needs to be prepared. Measurements of surface tension at the air-water interface are carried out at twelve surfactant concentrations. The samples are analyzed at pH 8 and pH 10 for hardness values of 4 gpg and 8 gpg, all measurements being taken at 25.0° C. (±0.5° C.). The CMC data are analyzed by plotting increase in surface tension with respect to dilution by using the “CMC Add-In” of the Lab Desk software from Kruss. The CMC is defined as the surfactant concentration at the breakpoint in the titration curve.
# [2] = Micellar lifetime (τ2) by stopped flow conductimetry; settings: pH 10.0 (wash), lauric acid system
# Protocol: MEASUREMENT OF […] […] (τ2): The micellar stability of a surfactant system is measured by Stopped Flow Conductimetry. The experiment is run at 25.0° C. (±0.5° C.). […] The conductivity of the solution is monitored by a MCS-200 Impedance Spectrometer from Bio-Logic SAS. The τ2 value is defined as the time required to reach a new equilibrium, as determined by curve-fit software BKMCS (version #1) from the Bio-Logic SAS company.
# [3] = Marangoni effect (E′/E″), oscillating drop interfacial rheology; settings: pH 10.0 (wash), lauric acid system
# Protocol: […] EFFECT (EYE'') MEASUREMENT: The Marangoni Effect quantifies the origin of foam film stability. Dynamic interfacial rheology is measured by a DSA100 (Kruss USA, Charlotte, N.C.) instrument equipped with an Oscillating Drop Module (ODM). The measurement is based on monitoring oscillating pendent drop shape with a CCD camera. The dynamic changes in the surface area and the interfacial tension (air-liquid interface) of the pendent drop from oscilating at equal periods, were recorded. A delay of dynamic interfacial tension change to dynamic surface area change is expressed as a phase angle Φ […]. From the measured phase angle, the Elastic Modulus (E') and Viscous Modulus (E'') are calculated. The Marangoni Effect EYE'' is computed from the relationship, E'/E''=cot Φ. At various surfactant levels, measurements are conducted at pH 10 and 4 gpg hardness in a base matrix of 300 ppm LAS (detergent measurements only) or 2000 ppm fatty acid (bar soap measurements only); 2300 ppm Na2SO4, and 25 ppm TBS (described above). The pH-switchable cosurfactants are added on the top of the base matrix to assess their impact on foam-film stability. The ODM operation is conducted with a period time of 2 seconds and an oscillation amplitude of 0.1 or 0.5.
# [4] = Suds testing protocol (FOAMSCAN foam / suds / lather volume); settings: for Foam Volume: lauric acid 2000 ppm
# Protocol: SUDS TESTING PROTOCOL: Foam volume and foam mileage are measured by […] instrument manufactured by […].-Concept, Longessaigne, France. The experiment is run at 25.0° C. (±0.5° C.). […] The cleaning solution contains 25 ppm Technical Body Soil (“TBS”; consisting of 15 wt. % coconut oil, 15 wt. % oleic acid, 15 wt. % paraffin oil, 15 wt. % olive oil, 15 wt. % cottonseed oil, 5 wt. % squalene, 5 wt. % cholesterol, 5 wt % myristic acid, 5 wt. % palmitic acid, and 5 wt. % stearic acid). The cleaning solution is mixed and aged at 60° C. for an hour and is placed into the […] sample chamber, a 1000-mL cylindrical transparent plastic cell. […] The suds volume recorded at the end of stifling is defined as the suds volume generated. The suds mileage is monitored by the time course of the suds height over 10 minutes. The final suds volume at the end of the 10 minutes is reported. […] Hardness is indicated by a calculation where both calcium and magnesium values are reported as mg/L (ppm), in which 2.5[Ca]+4.12[Mg] equals hardness in mg/L. The unit “grains per gallon” (gpg) is defined as 1 grain (64.8 mg) of calcium carbonate per U.S. gallon (3.79 L), or 17.118 ppm. Thus, 1 gpg is equivalent to 17.118 ppm of the Calcium and Magnesium solution at a 3:1 molar ratio of calcium to magnesium.
smiles,measurement,setting,value
"CCCCCCCCCCCC[N+](C)(C)CCO.[Br-] [KDB, dodecyl-(2-hydroxyethyl)-dimethyl ammonium bromide]",CMC,[1]; pH 8,48 ppm
same,CMC,[1]; pH 10,43 ppm
CCCCCCCCCCCC(=O)O [Lauric Acid],τ2,[2],39 ms
same,E′/E″,[3],1.5
same,Foam Volume,[4]; pH 8.0 (rinse),222 mL
same,Foam Volume,[4]; pH 10.0 (wash),80 mL
"CCCCCCCCCCCCNCCC[N+](C)(C)C.[Br-] [QUAT, 3-(dodecylamino)-N,N,N-trimethylpropan-1-aminium bromide]",CMC,[1]; pH 8,82 ppm
same,CMC,[1]; pH 10,75 ppm
CCCCCCCCCCCC(=O)[O-].[Na+] [Sodium Laurate],Change of Lather Volume (rinse vs wash),[4]; 4 gpg,−72%
same,Change of Lather Volume (rinse vs wash),[4]; 8 gpg,−100%
same,Change of Lather Volume (rinse vs wash),[4]; DI Water,−23%
same,Lather Volume,"[4]; pH 8.0 (rinse), 4 gpg",60 mL
same,Lather Volume,"[4]; pH 8.0 (rinse), 8 gpg",0 mL
same,Lather Volume,"[4]; pH 8.0 (rinse), 12 gpg",0 mL
same,Lather Volume,"[4]; pH 8.0 (rinse), 16 gpg",0 mL
same,Lather Volume,"[4]; pH 8.0 (rinse), DI Water",170 mL
same,Lather Volume,"[4]; pH 10.0 (wash), 4 gpg",215 mL
same,Lather Volume,"[4]; pH 10.0 (wash), 8 gpg",175 mL
same,Lather Volume,"[4]; pH 10.0 (wash), 12 gpg",0 mL
same,Lather Volume,"[4]; pH 10.0 (wash), 16 gpg",0 mL
same,Lather Volume,"[4]; pH 10.0 (wash), DI Water",220 mL
